{"source": "patent US12708655B2", "about": "“Botanicals as WNT/beta-catenin activators, molecular pathway regulators, tissue regenerators and health biomarker regulators” (Arbor Life Holdings, Ltd., priority 2020, dated 2026)", "key": {"[1]": {"test_system": "androgenetic alopecia and telogen effluvium in Men", "assay": "Comparative analysis of clinical trial results in men versus standard of care, adjusted to 24 weeks", "format": "in vivo, human"}, "[2]": {"test_system": "androgentic alopecia and telogen effluvium in Women", "details": "adjusted to 24 weeks, from clinical trial or systematic review; cited from earlier work"}, "[3]": {"test_system": "androgenetic alopecia and telogen effluvium in Men", "details": "adjusted to 24 weeks, cited from earlier work"}, "[4]": {"test_system": "androgentic alopecia and telogen effluvium in Women", "assay": "Comparative analysis of clinical trial results in women versus standard of care, adjusted to 24 weeks", "format": "in vivo, human"}, "[5]": {"test_system": "human dermal papilla cells", "details": "in vitro; cited from earlier work"}, "[6]": {"test_system": "LNCaP prostate cancer cells", "details": "cells stimulated by DHT; cited from earlier work"}, "androgen receptor": {"biological_target": "T1, androgen receptor (Homo sapiens, UniProt P10275)", "T1 construct": "nuclear translocation of the androgen receptor stimulated by DHT in human dermal papilla cells; host or cells: human dermal papilla cells", "T1 sequence (P10275 1-920)": "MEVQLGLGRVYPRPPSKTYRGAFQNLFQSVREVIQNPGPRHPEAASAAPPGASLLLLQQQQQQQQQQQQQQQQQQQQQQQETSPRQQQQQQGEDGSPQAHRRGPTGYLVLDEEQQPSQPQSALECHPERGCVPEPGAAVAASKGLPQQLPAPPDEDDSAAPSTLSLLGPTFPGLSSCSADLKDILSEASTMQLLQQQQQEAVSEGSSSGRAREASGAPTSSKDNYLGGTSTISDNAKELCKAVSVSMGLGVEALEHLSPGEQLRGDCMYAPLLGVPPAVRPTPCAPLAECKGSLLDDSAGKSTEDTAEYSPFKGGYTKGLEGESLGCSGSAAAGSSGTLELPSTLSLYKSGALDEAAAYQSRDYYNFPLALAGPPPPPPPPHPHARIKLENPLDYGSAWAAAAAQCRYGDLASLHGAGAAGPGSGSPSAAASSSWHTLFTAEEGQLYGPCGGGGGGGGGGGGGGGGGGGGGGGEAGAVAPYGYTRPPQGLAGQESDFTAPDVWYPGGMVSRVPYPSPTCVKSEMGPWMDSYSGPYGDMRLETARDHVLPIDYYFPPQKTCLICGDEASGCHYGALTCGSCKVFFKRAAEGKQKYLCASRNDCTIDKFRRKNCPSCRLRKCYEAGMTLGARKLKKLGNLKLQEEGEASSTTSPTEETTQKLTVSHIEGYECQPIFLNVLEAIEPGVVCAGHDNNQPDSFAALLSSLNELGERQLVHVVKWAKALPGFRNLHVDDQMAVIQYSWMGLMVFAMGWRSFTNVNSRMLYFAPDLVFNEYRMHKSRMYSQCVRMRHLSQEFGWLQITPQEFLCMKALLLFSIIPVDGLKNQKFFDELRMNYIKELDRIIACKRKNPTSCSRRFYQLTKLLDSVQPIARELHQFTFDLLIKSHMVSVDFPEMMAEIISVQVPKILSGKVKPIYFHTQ", "details": "human dermal papilla cells; cited from earlier work"}}, "data": [{"smiles": "CC(C)(C)NC(=O)[C@H]1CC[C@H]2[C@@H]3CC[C@H]4NC(=O)C=C[C@]4(C)[C@H]3CC[C@]12C", "note": "[finasteride 1 mg, finasteride]", "values": [{"measurement": "Efficacy Factor Multiple vs 2% Minoxidil", "setting": "[1]", "result": 1.0}, {"measurement": "Changes in Terminal Hairs per sq.cm, difference between active and placebo groups", "setting": "[2]", "result": "−1.0", "unit": "per sq.cm"}, {"measurement": "Changes in Terminal Hairs per sq.cm vs placebo", "setting": "[3]; from clinical trial or systematic review", "result": 6.4, "unit": "per sq.cm"}, {"measurement": "Changes in Terminal hair count per sq·cm versus placebo, comparators", "setting": "[3]; systematic reviews of randomized controlled trials", "result": 6.4, "unit": "per sq·cm"}, {"measurement": "Efficacy Factor Multiple vs 2% Minoxidil", "setting": "[4]", "result": "−0.1"}]}, {"smiles": "O=C(O)[C@H]1O[C@@H](Oc2cc3oc(-c4ccccc4)cc(=O)c3c(O)c2O)[C@H](O)[C@@H](O)[C@@H]1O", "note": "[baicalin]", "values": [{"measurement": "proliferation of human dermal papilla cells", "setting": "[5]", "result": "enhanced proliferation"}, {"measurement": "overgrowth of LNCaP prostate cancer cells", "setting": "[6]", "result": "dose-dependently inhibited"}, {"measurement": "nuclear translocation of the androgen receptor stimulated by DHT", "setting": "androgen receptor", "result": "inhibited"}]}]}
